Results published in patent US9382254B2, “Compounds and pharmaceutical compositions thereof for the treatment of cystic fibrosis” (Galapagos NV, priority 2013, dated 2016).

Tests used:
[1] = target: T1, CFTR G551D mutant (Homo sapiens, UniProt P13569, G551D); assay: YFP-halide influx assay for the CFTR-G551D mutation; format: cell-based; details: HEK293 cells, forskolin 10.67 μM
T1 construct: expressed in transfected cells; host or cells: HEK293 (reverse transfection with plasmid)
Source text: The YFP halide influx assay measures the functionality of the cystic fibrosis Transmembrane Conductance regulator (CFTR) channels. The assay is used to evaluate the capacity of compounds to increase the channel opening of existing mutant CFTR channels in the membrane. It makes use of the observation that the yellow fluorescent protein (YFP) variant YFP H148Q, I152L, […] has its fluorescence substantially quenched by halide ions like Cl^− and I^−. (Galietta, Haggie, & Verkman, 2001)
For this purpose, HEK293-cells are seeded in 96 well plates. During seeding, the cells are reverse-transfected with plasmid vectors that direct the expression of the CFTR G551D mutant and of the YFP reporter. Cells are incubated at 37° C., 5% CO2 for 24 hours so as to allow for sufficient expression of the CFTR protein.
(§1) The I^−-induced quenching of fluorescence is recorded immediately after injection of I^− for 7 seconds. The capacity of a compound to increase the channel opening is directly correlated with the decrease in fluorescence, and is expressed as (1-(fluorescence after 7 seconds (F)/fluorescence before injection (F0))) and an EC50 can be derived from a (1-F/F0) vs compound concentration plot.

[2] = target: T2, CFTR ΔF508 mutant (Homo sapiens, UniProt P13569, DEL508-508); assay: YFP-halide influx assay for the CFTR-ΔF508 mutation (384 well, FDSS/μCell); format: cell-based; details: CFBE41o- cells, CFTR-ΔF508, 1×D-PBS, fluorescence after 36 seconds
T2 construct: expressed in transfected cells; host or cells: CFBE41o- (adenoviral transduction)
T2 sequence (P13569 with tags, fused parts or gaps DEL508-508): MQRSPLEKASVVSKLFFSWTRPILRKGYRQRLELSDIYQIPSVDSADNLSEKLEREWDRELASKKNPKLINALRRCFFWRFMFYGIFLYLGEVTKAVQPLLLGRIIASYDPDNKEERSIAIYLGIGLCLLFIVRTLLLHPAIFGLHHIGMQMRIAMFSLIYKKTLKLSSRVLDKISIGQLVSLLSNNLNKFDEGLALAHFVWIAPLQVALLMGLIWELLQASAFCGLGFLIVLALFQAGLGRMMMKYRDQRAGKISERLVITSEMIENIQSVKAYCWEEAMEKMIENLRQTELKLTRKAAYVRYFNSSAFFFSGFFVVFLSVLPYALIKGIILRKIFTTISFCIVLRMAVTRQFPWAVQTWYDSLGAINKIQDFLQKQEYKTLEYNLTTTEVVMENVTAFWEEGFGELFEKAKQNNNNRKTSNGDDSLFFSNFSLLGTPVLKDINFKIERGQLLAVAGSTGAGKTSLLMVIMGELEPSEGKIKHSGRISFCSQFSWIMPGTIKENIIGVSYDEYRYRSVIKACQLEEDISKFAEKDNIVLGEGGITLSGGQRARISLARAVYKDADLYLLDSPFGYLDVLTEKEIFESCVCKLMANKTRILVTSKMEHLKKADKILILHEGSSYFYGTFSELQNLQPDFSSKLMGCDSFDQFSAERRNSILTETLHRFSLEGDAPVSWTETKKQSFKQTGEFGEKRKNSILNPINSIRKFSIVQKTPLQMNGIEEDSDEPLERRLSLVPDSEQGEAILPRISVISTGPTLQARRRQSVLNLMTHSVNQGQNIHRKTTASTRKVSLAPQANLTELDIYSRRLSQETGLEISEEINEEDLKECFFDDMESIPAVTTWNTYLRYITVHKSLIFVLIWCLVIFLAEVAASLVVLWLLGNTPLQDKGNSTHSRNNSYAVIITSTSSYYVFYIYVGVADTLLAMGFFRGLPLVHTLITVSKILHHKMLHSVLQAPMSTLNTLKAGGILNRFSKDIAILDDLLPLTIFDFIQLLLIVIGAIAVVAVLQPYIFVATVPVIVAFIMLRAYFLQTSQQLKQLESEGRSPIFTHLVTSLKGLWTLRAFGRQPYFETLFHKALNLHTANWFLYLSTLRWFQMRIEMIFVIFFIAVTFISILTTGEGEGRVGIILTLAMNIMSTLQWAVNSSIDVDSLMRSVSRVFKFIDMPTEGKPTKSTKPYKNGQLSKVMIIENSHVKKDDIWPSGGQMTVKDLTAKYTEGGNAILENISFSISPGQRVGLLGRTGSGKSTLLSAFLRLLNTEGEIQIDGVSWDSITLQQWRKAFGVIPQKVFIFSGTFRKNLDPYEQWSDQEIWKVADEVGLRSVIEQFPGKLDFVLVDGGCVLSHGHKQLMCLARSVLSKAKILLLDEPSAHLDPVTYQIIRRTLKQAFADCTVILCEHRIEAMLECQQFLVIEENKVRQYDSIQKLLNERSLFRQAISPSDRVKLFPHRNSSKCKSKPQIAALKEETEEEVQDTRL
Source text: The YFP halide influx assay measures the functionality of the cystic fibrosis Transmembrane Conductance regulator (CFTR) channels in the cystic fibrosis bronchial epithelium cell line CFBE41o-. The assay is used to evaluate the capacity of compounds to increase the open probability of existing CFTR channels in the membrane. It makes use of the observation that the yellow fluorescent protein (YFP) variant YFP H148Q, I152L has its fluorescence substantially quenched by halide ions like Cl— and I—. (Galietta, Haggie, & Verkman, 2001) (Nagai, et al., 2002)
For this purpose, CFBE41o-cells are seeded in 384 well plates (3000 CFBE cells/well). One day after seeding, the CFBE cells are transduced with adenoviral vectors that direct the expression of the CFTR ΔF508 mutant and of the YFP reporter. Cells are incubated at 27° C., 5% CO2 for 24 hours so as to allow for the proper folding and migration to the membrane of the CFTR channel or treated with a CFTR modulator during 24 h at 37° C.
as §1, with “I— induced” for “I^−-induced”, “recorded […]” for “recorded”, “I—” for “I^−”, “2 min on an FDSS/μCell (Hamamatsu).” for “7 seconds.”, “36” for “7”

T1 sequence (P13569 whole entry G551D): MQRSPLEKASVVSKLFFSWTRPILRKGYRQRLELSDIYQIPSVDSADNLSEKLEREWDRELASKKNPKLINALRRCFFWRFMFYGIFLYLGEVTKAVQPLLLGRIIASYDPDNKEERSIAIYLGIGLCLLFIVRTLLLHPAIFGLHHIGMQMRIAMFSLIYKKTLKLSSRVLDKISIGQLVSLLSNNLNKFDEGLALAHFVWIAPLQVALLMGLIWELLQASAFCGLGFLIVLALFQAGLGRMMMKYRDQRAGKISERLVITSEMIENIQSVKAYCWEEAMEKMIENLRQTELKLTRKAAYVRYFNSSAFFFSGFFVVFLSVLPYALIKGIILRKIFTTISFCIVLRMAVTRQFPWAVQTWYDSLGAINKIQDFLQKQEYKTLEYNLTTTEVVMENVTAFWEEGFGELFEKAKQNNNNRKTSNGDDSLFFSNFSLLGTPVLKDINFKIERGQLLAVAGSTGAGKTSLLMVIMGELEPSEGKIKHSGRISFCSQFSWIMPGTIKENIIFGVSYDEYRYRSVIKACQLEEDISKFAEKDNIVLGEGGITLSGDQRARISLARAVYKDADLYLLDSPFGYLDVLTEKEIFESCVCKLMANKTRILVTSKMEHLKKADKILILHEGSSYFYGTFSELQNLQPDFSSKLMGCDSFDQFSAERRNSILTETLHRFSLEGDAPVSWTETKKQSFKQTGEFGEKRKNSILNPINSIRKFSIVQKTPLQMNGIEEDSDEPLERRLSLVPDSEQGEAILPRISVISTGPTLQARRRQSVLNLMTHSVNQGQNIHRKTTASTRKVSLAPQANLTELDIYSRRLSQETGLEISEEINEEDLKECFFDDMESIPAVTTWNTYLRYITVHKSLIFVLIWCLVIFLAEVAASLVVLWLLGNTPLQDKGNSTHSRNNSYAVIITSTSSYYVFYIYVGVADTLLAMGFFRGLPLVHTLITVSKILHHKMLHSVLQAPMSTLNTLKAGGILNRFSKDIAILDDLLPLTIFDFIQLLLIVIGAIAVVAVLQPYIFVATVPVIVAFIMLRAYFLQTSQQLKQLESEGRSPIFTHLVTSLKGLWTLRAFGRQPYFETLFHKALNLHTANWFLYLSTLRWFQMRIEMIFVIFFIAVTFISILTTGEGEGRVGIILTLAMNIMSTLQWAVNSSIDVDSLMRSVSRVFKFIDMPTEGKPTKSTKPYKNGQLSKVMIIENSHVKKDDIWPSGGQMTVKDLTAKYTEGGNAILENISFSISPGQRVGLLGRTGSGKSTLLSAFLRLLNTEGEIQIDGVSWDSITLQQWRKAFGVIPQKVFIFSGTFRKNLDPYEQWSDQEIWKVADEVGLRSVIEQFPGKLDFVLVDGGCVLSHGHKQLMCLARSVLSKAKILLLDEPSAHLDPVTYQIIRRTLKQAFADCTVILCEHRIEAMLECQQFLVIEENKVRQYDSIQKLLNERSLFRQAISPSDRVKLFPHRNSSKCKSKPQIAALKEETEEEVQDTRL

| Compound | EC50 [1] [nM] | EC50 ([1]; class symbol) [nM] | EC50 [2] [nM] |
| --- | --- | --- | --- |
| 2-[[(2S)-2-hydroxy-3-methyl- butanoyl]amino]-5-[4- (trifluoromethyl)phenyl] sulfonyl-thiophene-3- carboxamide [Compound 366] | 458 | 100 to 500 |  |
| 5-(4-chlorophenyl)sulfonyl-2- [[(2S)-2-hydroxy-3- methyl-butanoyl]amino] thiophene-3-carboxamide [Compound 367] | 794 | 500 to 1000 |  |
| 5-(4-fluoro-2-(methoxymethyl) phenylsulfonyl)-2-(2-hydroxy- 2-methylpropanamido) thiophene-3-carboxamide [Compound 300] | 1760 | > 1000 |  |
| 5-[[5-bromo-6- (trifluoromethyl)-3-pyridyl] sulfonyl]-2-[(2-hydroxy-2- methyl-propanoyl)amino] thiophene-3-carboxamide [Compound 441] |  | > 1000 |  |
| CC(O)C(=O)Nc1sc(S(=O)(=O)c2ccc(Cl)cc2)cc1C(N)=O (single isomer, unassigned; enantiomer 1) [Compound 347] | 1390 |  | 19.1 |
| C[C@H](O)C(=O)Nc1sc(S(=O)(=O)c2ccc(F)cc2C(F)(F)F)cc1C(N)=O (single isomer, unassigned; enantiomer 1) [Compound 348] | 2550 |  | 16.4 |
| CC(C)C(O)C(=O)Nc1sc(S(=O)(=O)c2ccc(F)cc2)cc1C(N)=O (single isomer, unassigned; enantiomer 1) [Compound 352] | > 1340 | > 1000 | 12.2 |
| CC(O)C(=O)Nc1sc(S(=O)(=O)c2ccc(F)cc2Cl)cc1C(N)=O (single isomer, unassigned; enantiomer 1) [Compound 353] | 1720 |  | 10.8 |
| CC(O)C(=O)Nc1sc(S(=O)(=O)c2c(Cl)cc(F)cc2Cl)cc1C(N)=O (single isomer, unassigned; enantiomer 1) [Compound 354] | 1260 |  |  |
| CCc1ccccc1S(=O)(=O)c1cc(C(N)=O)c(NC(=O)C(C)O)s1 (stereo not shown) [Compound 312, 5-(2-Ethyl-benzenesulfonyl)-2-(2-hydroxy-propionylamino)-thiophene-3-carboxylic acid amide] | 1820 |  | 10.5 |
| CC(O)C(=O)Nc1sc(S(=O)(=O)c2c(F)cccc2F)cc1C(N)=O (stereo not shown) [Compound 313, 5-(2,6-Difluoro-benzenesulfonyl)-2-(2-hydroxy-propionylamino)-thiophene-3-carboxylic acid amide] | 2930 |  | 38.3 |
| C[C@H](O)C(=O)Nc1sc(S(=O)(=O)c2c(Cl)cccc2Cl)cc1C(N)=O [Compound 314, 5-(2,6-Dichloro-benzenesulfonyl)-2-((S)-2-hydroxy-propionylamino)-thiophene-3-carboxylic acid amide] | 458 |  | 7.5 |
| CC(C)Oc1ccc(S(=O)(=O)c2cc(C(N)=O)c(NC(=O)C(C)(C)O)s2)c(F)c1 [Compound 315, 5-(2-Fluoro-4-isopropoxy-benzenesulfonyl)-2-(2-hydroxy-2-methyl-propionylamino)-thiophene-3-carboxylic acid amide] | 828 |  | 42.4 |
| C[C@H](O)C(=O)Nc1sc(S(=O)(=O)c2ccc(OC(F)(F)F)cc2F)cc1C(N)=O [Compound 444, 5-[2-fluoro-4-(trifluoromethoxy)phenyl] sulfonyl-2-[[(2S)-2-hydroxypropanoyl]amino] thiophene-3-carboxamide] |  |  | 19.6 |
| C[C@H](O)C(=O)Nc1sc(S(=O)(=O)c2ccc(C(F)(F)F)cc2F)cc1C(N)=O [Compound 445, 5-[2-fluoro-4-(trifluoromethyl)phenyl] sulfonyl-2-[[(2S)-2-hydroxypropanoyl]amino] thiophene-3-carboxamide] |  |  | 19.6 |
| CC(C)(CO)C(=O)Nc1sc(S(=O)(=O)c2ccc(OC(F)(F)F)cc2)cc1C(N)=O [Compound 446, 2-[(3-hydroxy-2,2-dimethyl-propanoyl)amino]-5-[4-(trifluoromethoxy)phenyl] sulfonyl-thiophene-3-carboxamide] |  |  | 41.3 |
